Assay results reported in PubChem BioAssay (NCI).
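48-hour exposure; five concentrations; linearly interpolated endpoints. GI50 = concentration required for 50% inhibition of growth. TGI: total growth inhibition.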

Columns and labels:
Assay in all cases: inhibition of tumour cell growth, NCI panel, 48 h
SF-539 CNS = tested on: SF-539 CNS
SW-620 colon = tested on: SW-620 colon
MCF7 breast = tested on: MCF7 breast
MALME-3M melanoma = tested on: MALME-3M melanoma
PC-3 prostate = tested on: PC-3 prostate
HCC-2998 colon = tested on: HCC-2998 colon
SK-MEL-5 melanoma = tested on: SK-MEL-5 melanoma
T-47D breast = tested on: T-47D breast
HOP-92 NSCLC = tested on: HOP-92 NSCLC
CAKI-1 renal = tested on: CAKI-1 renal
MDA-MB-231 breast = tested on: MDA-MB-231 breast
786-0 renal = tested on: 786-0 renal
SR leukemia = tested on: SR leukemia
EKVX NSCLC = tested on: EKVX NSCLC
LOX IMVI melanoma = tested on: LOX IMVI melanoma
DU-145 prostate = tested on: DU-145 prostate
BT-549 breast = tested on: BT-549 breast
HCT-15 colon = tested on: HCT-15 colon
HL-60(TB) leukemia = tested on: HL-60(TB) leukemia
SF-295 CNS = tested on: SF-295 CNS
SF-268 CNS = tested on: SF-268 CNS
MDA-MB-435 = tested on: MDA-MB-435
RXF 393 renal = tested on: RXF 393 renal
HOP-62 NSCLC = tested on: HOP-62 NSCLC
M14 melanoma = tested on: M14 melanoma
NCI-H226 lung = tested on: NCI-H226 lung
RPMI-8226 leukemia = tested on: RPMI-8226 leukemia
SN12C renal = tested on: SN12C renal
A498 renal = tested on: A498 renal
UACC-62 melanoma = tested on: UACC-62 melanoma
KM12 colon = tested on: KM12 colon
UACC-257 melanoma = tested on: UACC-257 melanoma
OVCAR-5 ovarian = tested on: OVCAR-5 ovarian
U251 CNS = tested on: U251 CNS
SK-OV-3 ovarian = tested on: SK-OV-3 ovarian
SK-MEL-28 melanoma = tested on: SK-MEL-28 melanoma
MOLT-4 leukemia = tested on: MOLT-4 leukemia
SNB-19 CNS = tested on: SNB-19 CNS
HS 578T breast = tested on: HS 578T breast
IGROV1 ovarian = tested on: IGROV1 ovarian
NCI-H23 lung = tested on: NCI-H23 lung
HCT-116 colon = tested on: HCT-116 colon
ACHN renal = tested on: ACHN renal
NCI/ADR-RES ovarian = tested on: NCI/ADR-RES ovarian
NCI-H522 lung = tested on: NCI-H522 lung
A549 NSCLC = tested on: A549 NSCLC
TK-10 renal = tested on: TK-10 renal
SK-MEL-2 melanoma = tested on: SK-MEL-2 melanoma
HT29 colon = tested on: HT29 colon
K-562 leukemia = tested on: K-562 leukemia
UO-31 renal = tested on: UO-31 renal
CCRF-CEM leukemia = tested on: CCRF-CEM leukemia
SNB-75 CNS = tested on: SNB-75 CNS
NCI-H460 lung = tested on: NCI-H460 lung
COLO 205 colon = tested on: COLO 205 colon
OVCAR-3 ovarian = tested on: OVCAR-3 ovarian
OVCAR-8 ovarian = tested on: OVCAR-8 ovarian
OVCAR-4 ovarian = tested on: OVCAR-4 ovarian

CCN(CC)CCCCCCNc1cccc2cc(Br)cnc12
GI50 (SF-539 CNS): 6.47 µM | TGI (SF-539 CNS): 20.8 µM | GI50 (SW-620 colon): 3.41 µM | TGI (SW-620 colon): 14.7 µM | GI50 (MCF7 breast): 3.02 µM | TGI (MCF7 breast): 11.2 µM | GI50 (MALME-3M melanoma): 2.46 µM | TGI (MALME-3M melanoma): 5.13 µM | GI50 (PC-3 prostate): 3.6 µM | TGI (PC-3 prostate): 17 µM | GI50 (HCC-2998 colon): 3.84 µM | TGI (HCC-2998 colon): 15.4 µM | GI50 (SK-MEL-5 melanoma): 1.83 µM | TGI (SK-MEL-5 melanoma): 3.27 µM | GI50 (T-47D breast): 5.31 µM | TGI (T-47D breast): 20 µM | GI50 (HOP-92 NSCLC): 2.52 µM | TGI (HOP-92 NSCLC): 9.44 µM | GI50 (CAKI-1 renal): 2.83 µM | TGI (CAKI-1 renal): 12.4 µM | GI50 (MDA-MB-231 breast): 1.59 µM | TGI (MDA-MB-231 breast): 4.64 µM | GI50 (786-0 renal): 3.39 µM | TGI (786-0 renal): 11.1 µM | GI50 (SR leukemia): 3.04 µM | TGI (SR leukemia): 12.6 µM | GI50 (EKVX NSCLC): 10.2 µM | TGI (EKVX NSCLC): 25.1 µM | GI50 (LOX IMVI melanoma): 2.64 µM | TGI (LOX IMVI melanoma): 8.07 µM | GI50 (DU-145 prostate): 12.7 µM | TGI (DU-145 prostate): 26.4 µM | GI50 (BT-549 breast): 10.1 µM | TGI (BT-549 breast): 22.2 µM | GI50 (HCT-15 colon): 2.95 µM | TGI (HCT-15 colon): 10.9 µM | GI50 (HL-60(TB) leukemia): 2 µM | TGI (HL-60(TB) leukemia): 4.65 µM | GI50 (SF-295 CNS): 2.88 µM | TGI (SF-295 CNS): 10 µM | GI50 (SF-268 CNS): 10.9 µM | TGI (SF-268 CNS): 27.5 µM | GI50 (MDA-MB-435): 3.76 µM | TGI (MDA-MB-435): 12.9 µM | GI50 (RXF 393 renal): 4.52 µM | TGI (RXF 393 renal): 15.1 µM | GI50 (HOP-62 NSCLC): 10 µM | TGI (HOP-62 NSCLC): 23.4 µM | GI50 (M14 melanoma): 2.05 µM | TGI (M14 melanoma): 3.93 µM | GI50 (NCI-H226 lung): 11.8 µM | TGI (NCI-H226 lung): 27 µM | GI50 (RPMI-8226 leukemia): 3.81 µM | TGI (RPMI-8226 leukemia): 15.5 µM | GI50 (SN12C renal): 5.92 µM | TGI (SN12C renal): 21 µM | GI50 (A498 renal): 4.28 µM | TGI (A498 renal): 21.3 µM | GI50 (UACC-62 melanoma): 2.07 µM | TGI (UACC-62 melanoma): 4.7 µM | GI50 (KM12 colon): 3.56 µM | TGI (KM12 colon): 14.3 µM | GI50 (UACC-257 melanoma): 3.28 µM | TGI (UACC-257 melanoma): 9.36 µM | GI50 (OVCAR-5 ovarian): 6.25 µM | TGI (OVCAR-5 ovarian): 18.9 µM | GI50 (U251 CNS): 5.36 µM | TGI (U251 CNS): 17.7 µM | GI50 (SK-OV-3 ovarian): 13.2 µM | TGI (SK-OV-3 ovarian): 26.8 µM | GI50 (SK-MEL-28 melanoma): 2.82 µM | TGI (SK-MEL-28 melanoma): 6.76 µM | GI50 (MOLT-4 leukemia): 3.06 µM | TGI (MOLT-4 leukemia): 12.1 µM | GI50 (SNB-19 CNS): 5.77 µM | TGI (SNB-19 CNS): 22.6 µM | GI50 (HS 578T breast): 6.03 µM | TGI (HS 578T breast): 28.5 µM | GI50 (IGROV1 ovarian): 3.25 µM | TGI (IGROV1 ovarian): 10.9 µM | GI50 (NCI-H23 lung): 5.89 µM | TGI (NCI-H23 lung): 20.7 µM | GI50 (HCT-116 colon): 3.39 µM | TGI (HCT-116 colon): 14.2 µM | GI50 (ACHN renal): 4.98 µM | TGI (ACHN renal): 17.1 µM | GI50 (NCI/ADR-RES ovarian): 4.88 µM | TGI (NCI/ADR-RES ovarian): 20.3 µM | GI50 (NCI-H522 lung): 1.88 µM | TGI (NCI-H522 lung): 4.97 µM | GI50 (A549 NSCLC): 8.07 µM | TGI (A549 NSCLC): 22.6 µM | GI50 (TK-10 renal): 1.81 µM | TGI (TK-10 renal): 3.89 µM | GI50 (SK-MEL-2 melanoma): 5.01 µM | TGI (SK-MEL-2 melanoma): 18 µM | GI50 (HT29 colon): 1.88 µM | TGI (HT29 colon): 4.32 µM | GI50 (K-562 leukemia): 2.08 µM | TGI (K-562 leukemia): 5.59 µM | GI50 (UO-31 renal): 3.15 µM | TGI (UO-31 renal): 15 µM | GI50 (CCRF-CEM leukemia): 3.13 µM | TGI (CCRF-CEM leukemia): 11.2 µM | GI50 (SNB-75 CNS): 2.82 µM | TGI (SNB-75 CNS): 9.17 µM | GI50 (NCI-H460 lung): 4.25 µM | TGI (NCI-H460 lung): 16.5 µM | GI50 (COLO 205 colon): 1.87 µM | TGI (COLO 205 colon): 3.88 µM | GI50 (OVCAR-3 ovarian): 8.63 µM | TGI (OVCAR-3 ovarian): 24.8 µM | GI50 (OVCAR-8 ovarian): 10.1 µM | TGI (OVCAR-8 ovarian): 23.9 µM | GI50 (OVCAR-4 ovarian): 5.05 µM | TGI (OVCAR-4 ovarian): 18.9 µM
